In patent publication US11292782B2, “Diarylhydantoin compounds and methods of use thereof” (Nuvation Bio Inc., priority 2018, dated 2022):
Read-outs that look alike come from different tables or passages of the source.

Tests used:
Format in all cases: cell-based
Human AR [1] = target: T1, Human AR (Homo sapiens (Human), UniProt P10275); test: AR agonist assay (GRE-LUC luciferase, transfected HEK-293 cells, test article alone); conditions: HEK-293 transfected with human AR, read-out: AR Agonist IC50
T1 sequence (P10275 whole entry): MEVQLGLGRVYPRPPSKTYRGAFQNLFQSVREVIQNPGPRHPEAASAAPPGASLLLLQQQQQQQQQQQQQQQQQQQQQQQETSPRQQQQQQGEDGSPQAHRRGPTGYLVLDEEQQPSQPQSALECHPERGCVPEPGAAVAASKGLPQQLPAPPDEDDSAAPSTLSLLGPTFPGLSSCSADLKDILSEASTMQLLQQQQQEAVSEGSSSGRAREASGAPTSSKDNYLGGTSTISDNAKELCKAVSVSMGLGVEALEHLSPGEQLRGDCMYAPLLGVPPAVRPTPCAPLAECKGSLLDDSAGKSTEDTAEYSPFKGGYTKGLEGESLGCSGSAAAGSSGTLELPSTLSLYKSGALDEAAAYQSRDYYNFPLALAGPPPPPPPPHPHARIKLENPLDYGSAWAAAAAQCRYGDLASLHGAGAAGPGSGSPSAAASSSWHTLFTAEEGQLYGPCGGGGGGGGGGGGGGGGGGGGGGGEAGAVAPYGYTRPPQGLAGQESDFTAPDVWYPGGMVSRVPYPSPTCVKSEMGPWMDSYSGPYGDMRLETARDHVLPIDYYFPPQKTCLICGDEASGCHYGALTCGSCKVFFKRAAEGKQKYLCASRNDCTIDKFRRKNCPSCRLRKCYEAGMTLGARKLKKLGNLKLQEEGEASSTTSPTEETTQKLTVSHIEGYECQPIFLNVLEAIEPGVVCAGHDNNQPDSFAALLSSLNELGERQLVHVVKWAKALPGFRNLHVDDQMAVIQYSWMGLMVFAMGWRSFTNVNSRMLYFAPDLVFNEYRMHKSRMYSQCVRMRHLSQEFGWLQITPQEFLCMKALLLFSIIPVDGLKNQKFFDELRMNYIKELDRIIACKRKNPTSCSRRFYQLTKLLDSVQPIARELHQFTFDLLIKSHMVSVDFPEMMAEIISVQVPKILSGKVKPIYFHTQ
Procedure: (§1) Human AR cDNA cloned into pCMV vector, GRE-LUC, and CMV-renilla-LUC were used to transfect cells. HEK-293 cells (ATCC) were plated at 120,000 cells per well of a 24 well plate in DME+5% csFBS (Fisher Scientific, Waltham, Mass.). The cells were transfected using Lipofectamine (Life Technologies, Carlsbad, Calif.) with 0.25 μg GRE-LUC, 0.010 μg CMV-LUC (renilla luciferase) and 25 ng of the AR. […] Luciferase assay was performed 48 hrs after transfection. Firefly luciferase assay values were normalized to renilla luciferase values and were graphed using graphpad prism software (La Jolla, Calif.). […] The IC50 or EC50 values were determined using non-linear regression and […] logistics fitting.

Human AR [2] = target: T1, Human AR; test: AR antagonist assay (GRE-LUC luciferase, transfected HEK-293 cells, with 0.1 nM R1881); conditions: for IC50: with 0.1 nM R1881; for inhibition at 1 µM: HEK293
Procedure: as §1

GR = GR (Homo sapiens (Human), UniProt P04150); test: GR antagonist assay (GRE-LUC luciferase, transfected COS-7 cells, with 0.1 nM dexamethasone); conditions: in the presence of 0.1 nM dexamethasone; for GR antagonist assay, % of vehicle: 10 μM
Sequence of GR (P04150 whole entry): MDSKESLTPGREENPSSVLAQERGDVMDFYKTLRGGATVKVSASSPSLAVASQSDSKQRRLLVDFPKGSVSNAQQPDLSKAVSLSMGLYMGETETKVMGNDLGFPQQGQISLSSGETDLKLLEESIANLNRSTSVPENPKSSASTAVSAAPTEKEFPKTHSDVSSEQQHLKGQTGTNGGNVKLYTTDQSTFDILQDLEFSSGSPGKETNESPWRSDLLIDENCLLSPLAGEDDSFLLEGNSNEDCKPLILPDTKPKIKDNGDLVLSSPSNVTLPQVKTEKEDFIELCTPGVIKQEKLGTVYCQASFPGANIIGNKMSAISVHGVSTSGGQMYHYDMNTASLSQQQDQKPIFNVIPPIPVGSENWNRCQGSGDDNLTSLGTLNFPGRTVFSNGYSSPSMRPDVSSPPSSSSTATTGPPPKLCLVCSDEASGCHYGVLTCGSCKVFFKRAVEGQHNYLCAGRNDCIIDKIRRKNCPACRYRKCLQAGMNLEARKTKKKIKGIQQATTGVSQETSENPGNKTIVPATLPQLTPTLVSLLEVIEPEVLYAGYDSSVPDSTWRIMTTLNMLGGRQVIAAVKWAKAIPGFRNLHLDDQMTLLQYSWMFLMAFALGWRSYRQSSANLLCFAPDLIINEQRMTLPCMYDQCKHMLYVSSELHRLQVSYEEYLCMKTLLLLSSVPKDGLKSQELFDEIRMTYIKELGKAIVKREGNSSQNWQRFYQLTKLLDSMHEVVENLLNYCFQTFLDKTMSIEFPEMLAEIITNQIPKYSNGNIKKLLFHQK
Procedure: COS-7 cells (ATCC, Manassas, Va.) were plated in 24 well plates in DME+5% csFBS without phenol red at 70,000 cells/well. Once the cells attached to the plates (typically after overnight incubation after plating), they were transfected in OPTIMEM medium (Life Technologies) using lipofectamine reagent (Life Technologies) with 0.25 μg GRE-LUC, 25 ng pCR3.1 GR, and 10 ng CMV-renilla LUC per well. Twenty-four hours after transfection, the cells were fed with DME+5% csFBS without phenol red (Fisher Scientific, Waltham, Mass.) and treated with the test compounds (1 pM to 10 μM dose range) in the presence of 0.1 nM dexamethasone (Sigma, St. Louis, Mo.). Sixteen to twenty-four hours after treatment, a luciferase assay was performed using the Dual Luciferase assay kit (Promega, Madison, Wis.). Firefly luciferase values were normalized to Renilla luciferase numbers.

LNCaP-abl cells = test: Cell proliferation assay, LNCaP-abl (CellTiter-Glo); conditions: 72 h, 3 days; for activity at 3 µM: read-out: cell proliferation, % of vehicle at 3 μM; for activity at 10 µM: read-out: cell proliferation, % of vehicle at 10 μM
Procedure: (§2) LNCaP-abl (3,000 cells/well, received from Dr. Myles Brown, Dana Farber Cancer Institute), 22RV1 (1,000 cells/well), LNCaP (5,000 cells/well), or COS (3,000 cells/well) cells were plated in 96 well plates in 50 μl RPMI+10% FBS (Fisher Scientific, Waltham, Mass.). LNCaP, COS, and 22RV1 cells were obtained from ATCC. Cells were treated in RPMI+10% FBS with test articles, ranging from 1 nM to 10 μM. Three days later, viable cells (LNCaP-abl, 22RV1, and COS) were measured by CellTiter-Glo assay (Promega, Madison, Wis.). For LNCaP cells, medium containing test article was changed after 3 days of treatment, and after an additional 3 days of culture, viable cells were measured by CellTiter-Glo assay.
(§3) The LNCaP cell line is androgen responsive with AR and PSA expression. It contains a T877A mutation in the AR. The 22RV1 cell line is positive for AR and PSA with additional AR splice variants and is insensitive to androgen for cell proliferation. The LNCaP-abl cell line expresses both AR and GR but is insensitive to androgen for cell proliferation. COS-7 is used as an AR negative cell line in this experiment.

GFP-AR = GFP-AR (Homo sapiens (Human), UniProt P10275)
Sequence of GFP-AR (P10275 whole entry, looked up): as the sequence (P10275 whole entry) above
Procedure: COS cells plated in chamber slides in DME+5% csFBS without phenol red were transfected with […] GFP-AR using lipofectamine reagent.

LNCaP cells = test: Cell proliferation assay, LNCaP (CellTiter-Glo); conditions: 6 days
Procedure: as §2, §3

22RV1 cells = test: Cell proliferation assay, 22RV1 (CellTiter-Glo); conditions: 3 days
Procedure: as §2, §3

COS-7 cells = test: Cell proliferation assay, COS-7 (CellTiter-Glo); conditions: 3 days
Procedure: as §2, §3

MR49F cells = test: Cell proliferation assay, MR49F enzalutamide-resistant LNCaP cells (SRB); conditions: six days
Procedure: The outer wells of the 96 well plates were not used for treatment due to potential evaporation. Cells were treated with selected doses of the compounds with the final concentration of DMSO kept at 0.1%. The cells were re-treated three days later. At the end of six days of treatment, the cells were fixed using 40% w/v trichloroacetic acid and a […] (SRB) assay was performed to determine the cell viability.

[3] = tested on: TMPRSS2 expression in LNCaP cells; test: AR activity assay: TMPRSS2 gene expression in LNCaP cells (realtime PCR); conditions: 1 and 10 μM, in the presence of 0.1 nM R1881
Procedure: (§4) LNCaP (ATCC) or LNCaP-EnzR (MR49F was received from Dr. Martin Gleave, University of British Columbia) cells were plated in 96 well plates at 15,000-20,000 cells/well in RPMI+1% csFBS without phenol red. Cells were treated 2 days after plating and harvested 18 hours after treatment (for TMPRSS2) or 24 hours after treatment (for PSA and FKBP5). RNA was isolated (cells to ct kit, Life Technologies), cDNA synthesized (cells to ct kit), and expression of TMPRSS2, PSA or FKBP5 and expression of GAPDH were measured using realtime PCR primers and probes (TaqMan probes, Life Technologies) by realtime PCR (ABI 7900, Life Technologies). Relative expression was calculated using ddct method.

[4] = tested on: TMPRSS2 expression in LNCaP-EnzR cells; test: AR activity assay: TMPRSS2 gene expression in LNCaP-EnzR (MR49F) cells (realtime PCR); conditions: enzalutamide resistant LNCaP-EnzR cells, 1 and 10 μM
Procedure: as §4

Structure (SMILES) | EC50 (Human AR [1]) | IC50 (Human AR [2]) | IC50 (GR) | activity at 3 µM (LNCaP-abl cells) | activity at 10 µM (LNCaP-abl cells) | further results
Cn1ccnc1C(=O)NCc1ccc(N2C(=O)N(c3ccc(C#N)c(C(F)(F)F)c3)C(=O)C2(C)C)cc1F [Compound 1] | > 10000 nM | 968 nM | – | – | – | –
Cn1ccnc1C(=O)NCc1ccc(N2C(=S)N(c3ccc(C#N)c(C(F)(F)F)c3)C(=O)C2(C)C)cc1F [Compound 4] | > 10000 nM | 386 nM | – | – | – | –
CC(C)(C)C(=O)NCc1ccc(N2C(=S)N(c3ccc(C#N)c(C(F)(F)F)c3)C(=O)C2(C)C)cc1F [Compound 6] | > 10000 nM | 778 nM | > 10000 nM | 79% | 101% | –
Cc1ncsc1C(=O)NCc1ccc(N2C(=S)N(c3ccc(C#N)c(C(F)(F)F)c3)C(=O)C2(C)C)cc1F [Compound 9] | > 10000 nM | 49.1 nM | – | 89% | 27% | AR localization (cytoplasmic or nuclear) (GFP-AR; COS cells, GFP-AR, 30 min pre-treatment, then R1881 for four hours): nuclear; GR antagonist assay, % of vehicle (GR): 41%; cell proliferation, % of vehicle at 3 μM (LNCaP cells; 3 μM): 55%; cell proliferation, % of vehicle at 10 μM (LNCaP cells; 10 μM): 21%; cell proliferation, % of vehicle at 3 μM (22RV1 cells; 22RV1, 3 μM): 77%; cell proliferation, % of vehicle at 10 μM (22RV1 cells; 22RV1, 10 μM): 41%; cell proliferation, % of vehicle at 3 μM (COS-7 cells; COS-7, 3 μM): 92%; cell proliferation, % of vehicle at 10 μM (COS-7 cells; COS-7, 10 μM): 99%; cell proliferation, % of vehicle at 3 μM (MR49F cells; 3 μM): 53%; cell proliferation, % of vehicle at 10 μM (MR49F cells; 10 μM): 29%
CC1(C)C(=O)N(c2ccc(C#N)c(C(F)(F)F)c2)C(=S)N1c1ccc(CNC(=O)c2cccnc2)c(F)c1 [Compound 12] | > 10000 nM | 108 nM | > 10000 nM | 95% | 61% | –
CC1(C)C(=O)N(c2ccc(C#N)c(C(F)(F)F)c2)C(=S)N1c1ccc(CNC(=O)c2cncs2)cc1 [Compound 18] | > 10000 nM | 358 nM | > 10000 nM | – | – | –
CC1(C)C(=O)N(c2ccc(C#N)c(C(F)(F)F)c2)C(=S)N1c1ccc(CNC(=O)c2ncccn2)cc1 [Compound 19] | > 10000 nM | 453 nM | > 10000 nM | – | – | –
Cc1ncsc1C(=O)NCc1ccc(N2C(=S)N(c3cnc(C#N)c(C(F)(F)F)c3)C(=O)C2(C)C)cc1Cl [Compound 38] | – | 240 nM | > 10000 nM | 59% | 56% | –
Cc1ncsc1C(=O)NCc1ccc(N2C(=S)N(c3ccc(C#N)c(C(F)(F)F)c3)C(=O)C2(C)C)cc1 [Compound 39] | – | 200 nM | > 10000 nM | 90% | 87% | –
Cn1nccc1C(=O)NCc1ccc(N2C(=S)N(c3ccc(C#N)c(C(F)(F)F)c3)C(=O)C2(C)C)cc1F [Compound 42] | – | 77 nM | > 10000 nM | 98% | 60% | inhibition at 1 µM (Human AR [2]): 95%
Cn1cncc1C(=O)NCc1ccc(N2C(=S)N(c3ccc(C#N)c(C(F)(F)F)c3)C(=O)C2(C)C)cc1F [Compound 44] | – | 120 nM | > 10000 nM | 87% | 71% | –
Cc1ncc(C(=O)NCc2ccc(N3C(=S)N(c4ccc(C#N)c(C(F)(F)F)c4)C(=O)C3(C)C)cc2F)s1 [Compound 45] | – | 99 nM | > 10000 nM | 100% | 66% | inhibition at 1 µM (Human AR [2]): 95%
CC1(C)C(=O)N(c2ccc(C#N)c(C(F)(F)F)c2)C(=S)N1c1ccc(CNC(=O)c2cnco2)c(F)c1 [Compound 60] | – | 115 nM | > 10000 nM | 75% | 96% | –
Cc1ncsc1C(=O)NCc1ccc(N2C(=S)N(c3ccc(C#N)c(C(F)(F)F)c3)C(=O)C23CCC3)cc1F [Compound 65] | – | 64 nM | > 10000 nM | 94% | 83% | –
Cc1ncsc1C(=O)NCc1ccc(N2C(=S)N(c3ccc(C#N)c(F)c3)C(=O)C2(C)C)cc1F [Compound 68] | – | 120 nM | – | 89% | 85% | GR antagonist assay, % of vehicle (GR): 84%
CC1(C)C(=O)N(c2ccc(C#N)c(F)c2)C(=S)N1c1ccc(CNC(=O)c2ccccn2)c(F)c1 [Compound 69] | – | 380 nM | > 10000 nM | 77% | 81% | –
Cc1ccccc1C(=O)NCc1ccc(N2C(=S)N(c3ccc(C#N)c(F)c3)C(=O)C2(C)C)cc1F [Compound 71] | – | 589 nM | > 10000 nM | 86% | 81% | –
Cn1nccc1C(=O)NCc1ccc(N2C(=S)N(c3ccc(C#N)c(C(F)(F)F)c3)C(=O)C23CCC3)cc1F [Compound 73] | – | 92 nM | 2960 nM | 79% | 66% | –
Cc1ncsc1C(=O)NCc1ccc(N2C(=S)N(c3cccc(C(F)(F)F)c3)C(=O)C2(C)C)cc1F [Compound 76, N-(4-(5,5-dimethyl-4-oxo-2-thioxo-3-(3-(trifluoromethyl)phenyl)-imidazolidin-1-yl)-2-fluorobenzyl)-4-methylthiazole-5-carboxamide] | – | > 10000 nM | 3310 nM | 72% | 88% | –
C[C@]1(O)CC[C@H]2[C@@H]3CCC4=CC(=O)CCC4=C3C=C[C@@]21C [Compound R1881, reference compound] | – | – | – | – | – | AR localization (cytoplasmic or nuclear) (GFP-AR): nuclear
CNC(=O)c1ccc(N2C(=S)N(c3ccc(C#N)c(C(F)(F)F)c3)C(=O)C2(C)C)cc1F [Enzalutamide, enzalutamide] | – | – | – | – | – | TMPRSS2 expression [3]: inhibitory effects; TMPRSS2 expression [4]: failed to reduce TMPRSS2 expression
